Experimental data from US9867795B2, “Nitrated lipids and methods of making and using thereof” (The UAB Research Foundation, priority 2004, dated 2018).
“And” between values parts separate entries of the source, which are not always exact repeats. Identical values can stand only once. “Also recorded” adds a separate entry of the source.

Columns and labels:
3T3-L1 adipocytes = experiment: [^3H]-2-Deoxy-D-glucose uptake assay in differentiated 3T3-L1 adipocytes; assay type: cell-based; conditions: test compounds for 2 days; LNO2 1-10 μM
Experimental: [^3H]-2-Deoxy-D-glucose Uptake Assay in Differentiated 3T3-L1 Adipocyte. [^3H]-2-Deoxy-D-glucose uptake assay as previously described (19) 3T3-L1 preadipocytes were grown in 24-well tissue culture plates, 2-day postconfluent preadipocytes were treated by 10 μg/ml insulin (Sigma), 1 μM dexamethasone (Sigma), and 0.5 mM 3-isobutyl-1-methylxanthine (Sigma) in DMEM containing 10% FBS for two days, then cells were kept in 10 μg/ml insulin also in DMEM containing 10% FBS for 6 days (changed medium every three days). Eight days after induction of adipogenesis, test compounds in DMEM containing 10% FBS were added for an additional 2 days (changed medium every day) and PPARγ-specific antagonist GW9662 were pretreated 1 h before other additions. After two rinses with serum-free DMEM, cells were incubated for 3 h in serum-free DMEM and rinsed at room temperature three times with freshly prepared KRPH buffer (5 mM phosphate buffer, 20 mM HEPES, 1 mM MgSO4, 1 mM CaCl2, 136 mM NaCl, 4.7 mM KCl, pH 7.4). The buffer was replaced with 1 μCi/ml of [^3H]-2-deoxy-D-glucose in KRPH buffer for 10 min at room temperature. The treated cells were rinsed carefully three times with cold PBS, lysed overnight in 0.8N NaOH (0.4 ml/well), and neutralized with […] of 12N HCl. Lysate (360 μl) was added to 4 ml Scinti-Safe Plus TM 50% in a scintillation vial, and the vials were mixed and counted.
[^3H]-2-Deoxy-D-glucose uptake assay in differentiated 3T3-L1 adipocytes. [^3H]-2-deoxy-D-glucose uptake was analyzed as previously (23). […] Cells were then rinsed three times with cold PBS, lysed overnight in 0.8 N NaOH (0.4 ml/well), neutralized with 26.6 μl of 12 N HCl and 360 μl of lysate was added into 4 ml Scinti-Safe Plus™ 50% for radioactivity determination by liquid scintillation counting.

[1] = LNO2 and OA-NO2 decay in phosphate buffer; assay type: physicochemical; conditions: 3 μM, 100 mM phosphate buffer, pH 7.4, 37° C.
Experimental: LNO2 and OA-NO2 decay. […] During the two hour incubation, aliquots were removed and analyzed for LNO2 and OA-NO2 content. […] Non-decayed LNO2 and OA-NO2 were quantitated via HPLC ESI-MS/MS as described above.

[2] = Storage stability in CH3OH under argon at −80° C.; assay type: physicochemical; conditions: in CH3OH/methanol under argon at −80° C.
Experimental: LNO2 synthesis. Linoleic acid/HgCl2/phenylselenium bromide/NaNO2 (1:1.3:1:1, mol/mol) were combined in THF/acetonitrile (1:1, v/v) with a final concentration of 0.15 M linoleic acid. Care was taken to use anhydrous solvents, dry glassware and reagents that had been dried in vacuo over phosphorus pentoxide. The reaction mixture was stirred (4 h, 25° C.) followed by centrifugation to sediment the precipitate. The supernatant was recovered, the solvent evaporated in vacuo, the product mixture redissolved in THF (original volume) and the temperature reduced to 0° C. A 10-fold molar excess of H2O2 was slowly added with stirring to the mixture then allowed to rest in an ice bath for 20 min followed by a gradual warming to room temp (45 min). The product mixture was extracted with equal parts saturated NaCl and diethyl ether, the organic phase collected, the solvent removed in vacuo and the lipid products were resolvated in CH2Cl2/CH3OH (4:1, v/v). […] Under these conditions, purified nitrated linoleic acid is stable for >3 months. Large scale purification of the individual positional isomers was performed by preparative HPLC using a 250×21.2 mm C18 Phenomenex Luna column (5 μm particle size). […]

3T3-L1 preadipocytes = conditions: for 3T3-L1 preadipocyte differentiation induced: two weeks, oil red O, LNO2 3 μM, OA-NO2 1 μM
[3] = pH dependency of •NO formation from LNO2 (EPR, cPTIO reduction); conditions: 80 μM LNO2, buffers with different pHs
Experimental: Electron paramagnetic resonance—EPR measurements were performed at room temperature using a Bruker Elexsys E-500 spectrometer equipped with an ER049X microwave bridge and an AquaX liquid sample cell. The following instrument setting were used: modulation frequency, 100 kHz; modulation amplitude, 0.05 G; receiver gain, 60 dB; time constant, 1.28 ms; sweep time, 5.24 s; center field, 3510 G; sweep width, 100 G; power, 20 mW; scan parameter, 16 scans.
Due to limitations of the •NO-cPTIO reaction for quantitating yields of NO, oxymyoglobin was utilized to measure •NO release rates (24).

Row | Substance | [^3H]-2-deoxy-D-glucose uptake (3T3-L1 adipocytes) | decay after 2 hr [1] | share degraded after 2 hr [1] [%] | time stable on storage [2] [months] | 3T3-L1 preadipocyte differentiation induced (3T3-L1 preadipocytes) | pH of maximal •NO release [3] | expression of adipocyte markers (PPARγ2 and aP2) (3T3-L1 preadipocytes; immunoblot of cell lysate)
1 | 9- and 10-nitro-9-cis-octadecenoic acid [OA-NO2] | induced an increase; also recorded: induced significant increases in glucose uptake | only minimal decay | 25 | > 3 | ~60% |  | 
2 | 10-nitro-9,12-octadecadienoic acid and 12-nitro-9,12-octadecadienoic acid [LNO2] | dose-dependent increase in glucose uptake; also recorded: greater than that observed for equimolar 15-deoxy-PGJ2, equivalent to Rosiglitazone; also recorded: paralleled |  | ~80 | > 3 | > 30% and ~30% | 7.4 | resulted in expression of specific adipocyte markers
